Data reported in patent publication US20250034170A1, “SMALL MOLECULE MODULATORS OF GLUCOCEREBROSIDASE ACTIVITY AND USES THEREOF” (Vanqua Bio, Inc., priority 2021, published 2025).
pEC50: −log10 of the molar value.

Target: T1, GCase (Homo sapiens, UniProt P04062)
T1 construct: endogenous in cells; host or cells: HeLa cells
T1 sequence (P04062 40-536): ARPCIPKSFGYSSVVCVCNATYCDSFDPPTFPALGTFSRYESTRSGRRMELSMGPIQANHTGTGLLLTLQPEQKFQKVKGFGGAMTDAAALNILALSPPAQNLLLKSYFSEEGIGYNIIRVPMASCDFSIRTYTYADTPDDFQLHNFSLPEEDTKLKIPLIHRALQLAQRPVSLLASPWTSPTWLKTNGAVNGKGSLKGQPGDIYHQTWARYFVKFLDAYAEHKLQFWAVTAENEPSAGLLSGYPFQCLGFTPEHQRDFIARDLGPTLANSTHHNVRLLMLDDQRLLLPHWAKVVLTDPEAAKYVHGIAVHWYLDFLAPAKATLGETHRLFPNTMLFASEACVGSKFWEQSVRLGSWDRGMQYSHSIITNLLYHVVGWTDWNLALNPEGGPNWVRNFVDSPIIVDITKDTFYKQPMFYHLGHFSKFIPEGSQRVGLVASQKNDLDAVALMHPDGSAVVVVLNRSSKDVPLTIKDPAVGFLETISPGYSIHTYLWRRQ
Assay: activation of GCase in a live cell PFB assay in HELA cells
Format: cell-based
Settings: EC50 given as range classes
Procedure: Exemplary compounds were evaluated for activation of GCase in a live cell PFB assay in HELA cells (essentially as described in Ysselstein et al., “LRRK2 kinase activity regulates lysosomal glucocerebrosidase in neurons derived from Parkinson's disease patients” Nature Communications (2019) 10:5570). […] EC50 ranges: A: <10 μM; B: >10-50 μM; C: >50-100 μM; D: >100 μM.

Row | pEC50 | SMILES
1 | 4.30 to 5.00 | Cc1nn(CC(F)F)c2nc(N3CCC4(CCN(c5cc(C(F)(F)F)ccn5)C4)CC3)cnc12 [Compound 178, 8-[1-(2,2-difluoroethyl)-3-methyl-1H-pyrazolo[3,4-b]pyrazin-6-yl]-2-[4-(trifluoromethyl)pyridin-2-yl]-2,8-diazaspiro[4.5]decane]
2 | 4.30 to 5.00 | Cc1nc2cnn(CC(F)F)c2nc1N1CCC2(CCN(c3cc(C(F)(F)F)ccn3)C2)CC1 [Compound 179, 8-[1-(2,2-difluoroethyl)-5-methyl-1H-pyrazolo[3,4-b]pyrazin-6-yl]-2-[4-(trifluoromethyl)pyridin-2-yl]-2,8-diazaspiro[4.5]decane]
3 | 4.30 to 5.00 | FC(F)(F)c1ccnc(N2CCC3(CCN(c4cncc(-c5nncs5)n4)CC3)C2)c1 [Compound 180, 8-[6-(1,3,4-thiadiazol-2-yl)pyrazin-2-yl]-2-[4-(trifluoromethyl)pyridin-2-yl]-2,8-diazaspiro[4.5]decane]
4 | 4.30 to 5.00 | FC(F)Cn1ncc2ncc(N3CC4(CCN(c5cc(C(F)(F)F)ccn5)C4)C3)nc21 [Compound 181, 2-[1-(2,2-difluoroethyl)-1H-pyrazolo[3,4-b]pyrazin-6-yl]-6-[4-(trifluoromethyl)pyridin-2-yl]-2,6-diazaspiro[3.4]octane]
5 | > 5.00 | FC(F)Cn1ncc2ncc(N3CC4(CCN(c5ccc(C(F)(F)F)cn5)C4)C3)nc21 [Compound 182, 2-[1-(2,2-difluoroethyl)-1H-pyrazolo[3,4-b]pyrazin-6-yl]-6-[5-(trifluoromethyl)pyridin-2-yl]-2,6-diazaspiro[3.4]octane]
6 | 4.00 to 4.30 | FC(F)Cn1ncc2ncc(N3CC4(CCN(c5ccc(C(F)(F)F)nc5)C4)C3)nc21 [Compound 183, 2-[1-(2,2-difluoroethyl)-1H-pyrazolo[3,4-b]pyrazin-6-yl]-6-[6-(trifluoromethyl)pyridin-3-yl]-2,6-diazaspiro[3.4]octane]

Same assay, conditions: activation of GCase, EC50 ranges

Row | SMILES | pEC50
7 | FC(F)Cn1ncc2ncc(N3CCC4(CC3)CCN(c3ccncc3C(F)(F)F)C4)nc21 [Compound 156, 8-[1-(2,2-difluoroethyl)-1H-pyrazolo[3,4-b]pyrazin-6-yl]-2-[3-(trifluoromethyl)pyridin-4-yl]-2,8-diazaspiro[4.5]decane] | > 5.00
8 | FC(F)Cn1ncc2ncc(N3CC4(CCCN(c5ccc(C(F)F)nc5)C4)C3)nc21 [Compound 157, 2-[1-(2,2-difluoroethyl)-1H-pyrazolo[3,4-b]pyrazin-6-yl]-6-[6-(difluoromethyl)pyridin-3-yl]-2,6-diazaspiro[3.5]nonane] | < 4.00
9 | FC(F)c1ccc(N2CCCC3(C2)CN(c2cnc4cnn(CC(F)(F)F)c4n2)C3)cn1 [Compound 158, 6-[6-(difluoromethyl)pyridin-3-yl]-2-[1-(2,2,2-trifluoroethyl)-1H-pyrazolo[3,4-b]pyrazin-6-yl]-2,6-diazaspiro[3.5]nonane] | < 4.00
10 | Cc1nn(CC(F)F)c2nc(N3CC4(CCCN(c5ccc(C(F)F)nc5)C4)C3)cnc12 [Compound 159, 2-[1-(2,2-difluoroethyl)-3-methyl-1H-pyrazolo[3,4-b]pyrazin-6-yl]-6-[6-(difluoromethyl)pyridin-3-yl]-2,6-diazaspiro[3.5]nonane] | < 4.00
11 | FC(F)c1ccc(N2CCCC3(C2)CN(c2cncc(-c4nncs4)n2)C3)cn1 [Compound 160, 6-[6-(difluoromethyl)pyridin-3-yl]-2-[6-(1,3,4-thiadiazol-2-yl)pyrazin-2-yl]-2,6-diazaspiro[3.5]nonane] | 4.30 to 5.00
12 | FC(F)c1ccnc(N2CCC3(CC2)CCN(c2cnc4cnn(CC(F)(F)F)c4n2)C3)c1 [Compound 162, 8-[4-(difluoromethyl)pyridin-2-yl]-2-[1-(2,2,2-trifluoroethyl)-1H-pyrazolo[3,4-b]pyrazin-6-yl]-2,8-diazaspiro[4.5]decane] | > 5.00
13 | Cc1nn(CC(F)F)c2nc(N3CCC4(CCN(c5cc(C(F)F)ccn5)CC4)C3)cnc12 [Compound 163, 2-[1-(2,2-difluoroethyl)-3-methyl-1H-pyrazolo[3,4-b]pyrazin-6-yl]-8-[4-(difluoromethyl)pyridin-2-yl]-2,8-diazaspiro[4.5]decane] | > 5.00
14 | FC(F)c1ccnc(N2CCC3(CC2)CCN(c2cncc(-c4nncs4)n2)C3)c1 [Compound 164, 8-[4-(difluoromethyl)pyridin-2-yl]-2-[6-(1,3,4-thiadiazol-2-yl)pyrazin-2-yl]-2,8-diazaspiro[4.5]decane] | 4.30 to 5.00
15 | O=C1N(c2cc(C(F)F)ccn2)CCC12CCN(c1cnc3cnn(CC(F)F)c3n1)CC2 [Compound 165, 8-[1-(2,2-difluoroethyl)-1H-pyrazolo[3,4-b]pyrazin-6-yl]-2-[4-(difluoromethyl)pyridin-2-yl]-2,8-diazaspiro[4.5]decan-1-one] | > 5.00
16 | O=C1N(c2cc(C(F)F)ccn2)CCC12CCN(c1cnc3cnn(CC(F)(F)F)c3n1)CC2 [Compound 166, 2-[4-(difluoromethyl)pyridin-2-yl]-8-[1-(2,2,2-trifluoroethyl)-1H-pyrazolo[3,4-b]pyrazin-6-yl]-2,8-diazaspiro[4.5]decan-1-one] | > 5.00
17 | Cc1nn(CC(F)F)c2nc(N3CCC4(CC3)CCN(c3cc(C(F)F)ccn3)C4=O)cnc12 [Compound 167, 8-[1-(2,2-difluoroethyl)-3-methyl-1H-pyrazolo[3,4-b]pyrazin-6-yl]-2-[4-(difluoromethyl)pyridin-2-yl]-2,8-diazaspiro[4.5]decan-1-one] | 4.30 to 5.00
18 | Cc1nn(CC(F)F)c2nc(N3CCC4(CC3)CCN(c3cc(C(F)(F)F)ccn3)C4=O)cnc12 [Compound 168, 8-[1-(2,2-difluoroethyl)-3-methyl-1H-pyrazolo[3,4-b]pyrazin-6-yl]-2-[4-(trifluoromethyl)pyridin-2-yl]-2,8-diazaspiro[4.5]decan-1-one] | > 5.00
19 | O=C1N(c2cc(C(F)(F)F)ccn2)CCC12CCN(c1cncc(-c3nncs3)n1)CC2 [Compound 169, 8-[6-(1,3,4-thiadiazol-2-yl)pyrazin-2-yl]-2-[4-(trifluoromethyl)pyridin-2-yl]-2,8-diazaspiro[4.5]decan-1-one] | > 5.00

Second part, the compound after the results:

Row | pEC50 | SMILES
20 | > 5.00 | FC(F)Cn1ncc2ncc(N3CCC4(CCN(c5ccnc(C(F)(F)F)c5)CC4)C3)nc21 [Compound 155, 2-[1-(2,2-difluoroethyl)-1H-pyrazolo[3,4-b]pyrazin-6-yl]-8-[2-(trifluoromethyl)pyridin-4-yl]-2,8-diazaspiro[4.5]decane]
21 | 4.30 to 5.00 | FC(F)Cn1ncc2ncc(N3CCC4(CCN(c5cc(C(F)F)ccn5)CC4)C3)nc21 [Compound 161, 2-[1-(2,2-difluoroethyl)-1H-pyrazolo[3,4-b]pyrazin-6-yl]-8-[4-(difluoromethyl)pyridin-2-yl]-2,8-diazaspiro[4.5]decane]
22 | 4.30 to 5.00 | FC(F)Cn1ncc2ncc(N3CCC4(CCN(c5cccnc5C(F)(F)F)CC4)C3)nc21 [Compound 170, 2-[1-(2,2-difluoroethyl)-1H-pyrazolo[3,4-b]pyrazin-6-yl]-8-[2-(trifluoromethyl)pyridin-3-yl]-2,8-diazaspiro[4.5]decane]
23 | 4.30 to 5.00 | FC(F)Cn1ncc2ncc(N3CC4(CN(c5cc(C(F)(F)F)ccn5)CCO4)C3)nc21 [Compound 171, 2-[1-(2,2-difluoroethyl)-1H-pyrazolo[3,4-b]pyrazin-6-yl]-8-[4-(trifluoromethyl)pyridin-2-yl]-5-oxa-2,8-diazaspiro[3.5]nonane]
24 | 4.30 to 5.00 | FC(F)Cn1ncc2ncc(N3CC4(CN(c5ccc(C(F)(F)F)cn5)CCO4)C3)nc21 [Compound 172, 2-[1-(2,2-difluoroethyl)-1H-pyrazolo[3,4-b]pyrazin-6-yl]-8-[5-(trifluoromethyl)pyridin-2-yl]-5-oxa-2,8-diazaspiro[3.5]nonane]
25 | 4.30 to 5.00 | FC(F)Cn1ncc2ncc(N3CC4(CN(c5ccc(C(F)(F)F)nc5)CCO4)C3)nc21 [Compound 173, 2-[1-(2,2-difluoroethyl)-1H-pyrazolo[3,4-b]pyrazin-6-yl]-8-[6-(trifluoromethyl)pyridin-3-yl]-5-oxa-2,8-diazaspiro[3.5]nonane]
26 | 4.00 to 4.30 | FC(F)Cn1ncc2ncc(N3CCC4(CN(c5cc(C(F)(F)F)ccn5)CCO4)C3)nc21 (centres unmarked) [Compound 174, 2-[1-(2,2-difluoroethyl)-1H-pyrazolo[3,4-b]pyrazin-6-yl]-9-[4-(trifluoromethyl)pyridin-2-yl]-6-oxa-2,9-diazaspiro[4.5]decane]
27 | 4.00 to 4.30 | FC(F)Cn1ncc2ncc(N3CCC4(CN(c5ccc(C(F)(F)F)cn5)CCO4)C3)nc21 (centres unmarked) [Compound 175, 2-[1-(2,2-difluoroethyl)-1H-pyrazolo[3,4-b]pyrazin-6-yl]-9-[5-(trifluoromethyl)pyridin-2-yl]-6-oxa-2,9-diazaspiro[4.5]decane]
28 | < 4.00 | FC(F)Cn1ncc2ncc(N3CCC4(CN(c5ccc(C(F)(F)F)nc5)CCO4)C3)nc21 (centres unmarked) [Compound 176, 2-[1-(2,2-difluoroethyl)-1H-pyrazolo[3,4-b]pyrazin-6-yl]-9-[6-(trifluoromethyl)pyridin-3-yl]-6-oxa-2,9-diazaspiro[4.5]decane]
29 | 4.00 to 4.30 | FC(F)(F)Cn1ncc2ncc(N3CCC4(CCN(c5cc(C(F)(F)F)ccn5)C4)CC3)nc21 [Compound 177, 8-[1-(2,2,2-trifluoroethyl)-1H-pyrazolo[3,4-b]pyrazin-6-yl]-2-[4-(trifluoromethyl)pyridin-2-yl]-2,8-diazaspiro[4.5]decane]
